In article PMC6658524, “Lysosomal degradation of newly formed insulin granules contributes to β cell failure in diabetes” (Nature Communications, 2019):
pIC50: −log10 of the molar value.

Experiments:
p38α = target: T1, p38α (Homo sapiens, UniProt Q16539); assay: biochemical; set-up: Kinase inhibition by mobility shift assay (Caliper)
T1 construct: gene MAPK14

PKD1 = target: T2, PKD1 (Homo sapiens, UniProt Q15139); assay: biochemical; set-up: Kinase inhibition by mobility shift assay (Caliper)
T2 construct: gene PRKD1

Pim-1(h) = target: T3, Pim-1(h) (Homo sapiens, UniProt P11309); assay: biochemical; set-up: Eurofins KinaseProfiler panel of 60 kinases, per cent inhibition
T3 construct: gene PIM1
Source text: (§1) A more detailed account of the discovery, chemistry and biochemical properties of this novel class of selective p38δ inhibitors will be given elsewhere.

CLK2(h) = CLK2(h) (Homo sapiens, UniProt P49760); assay: biochemical; set-up: Eurofins KinaseProfiler panel of 60 kinases, per cent inhibition
Source text: as §1

BTK(h) = BTK(h) (Homo sapiens, UniProt Q06187); assay: biochemical; set-up: Eurofins KinaseProfiler panel of 60 kinases, per cent inhibition
Source text: as §1

PAK4(h) = PAK4(h) (Homo sapiens, UniProt O96013); assay: biochemical; set-up: Eurofins KinaseProfiler panel of 60 kinases, per cent inhibition
Source text: as §1

Pim-2(h) = target: T4, Pim-2(h) (Homo sapiens, UniProt Q9P1W9); assay: biochemical; set-up: Eurofins KinaseProfiler panel of 60 kinases, per cent inhibition
T4 construct: gene PIM2
Source text: as §1

DYRK2(h) = DYRK2(h) (Homo sapiens, UniProt Q92630); assay: biochemical; set-up: Eurofins KinaseProfiler panel of 60 kinases, per cent inhibition
Source text: as §1

Aurora-B(h) = target: T5, Aurora-B(h) (Homo sapiens, UniProt Q96GD4); assay: biochemical; set-up: Eurofins KinaseProfiler panel of 60 kinases, per cent inhibition
T5 construct: gene AURKB
Source text: as §1

KDR(h) = KDR(h) (Homo sapiens, UniProt P35968); assay: biochemical; set-up: Eurofins KinaseProfiler panel of 60 kinases, per cent inhibition
Source text: as §1

PKCθ(h) = target: T6, PKCθ(h) (Homo sapiens, UniProt Q04759); assay: biochemical; set-up: Eurofins KinaseProfiler panel of 60 kinases, per cent inhibition
T6 construct: gene PRKCQ
Source text: as §1

Lyn(h) = Lyn(h) (Homo sapiens, UniProt P07948); assay: biochemical; set-up: Eurofins KinaseProfiler panel of 60 kinases, per cent inhibition
Source text: as §1

CDK5/p25(h) = target: T7, CDK5/p25(h) (Homo sapiens, UniProt Q00535); assay: biochemical; set-up: Eurofins KinaseProfiler panel of 60 kinases, per cent inhibition
T7 construct: p25
Source text: as §1

BrSK2(h) = BrSK2(h) (Homo sapiens, UniProt Q8IWQ3); assay: biochemical; set-up: Eurofins KinaseProfiler panel of 60 kinases, per cent inhibition
Source text: as §1

Ron(h) = target: T8, Ron(h) (Homo sapiens, UniProt Q04912); assay: biochemical; set-up: Eurofins KinaseProfiler panel of 60 kinases, per cent inhibition
T8 construct: gene MST1R
Source text: as §1

SAPK2a(h) = target: T9, SAPK2a(h) (Homo sapiens, UniProt Q16539); assay: biochemical; set-up: Eurofins KinaseProfiler panel of 60 kinases, per cent inhibition
T9 construct: gene MAPK14
Source text: as §1

cKit(h) = target: T10, cKit(h) (Homo sapiens, UniProt P10721); assay: biochemical; set-up: Eurofins KinaseProfiler panel of 60 kinases, per cent inhibition
T10 construct: gene KIT
Source text: as §1

MELK(h) = MELK(h) (Homo sapiens, UniProt Q14680); assay: biochemical; set-up: Eurofins KinaseProfiler panel of 60 kinases, per cent inhibition
Source text: as §1

Hck(h) activated = Hck(h) activated (Homo sapiens, UniProt P08631); assay: biochemical; set-up: Eurofins KinaseProfiler panel of 60 kinases, per cent inhibition
Source text: as §1

Rsk1(h) = target: T11, Rsk1(h) (Homo sapiens, UniProt Q15418); assay: biochemical; set-up: Eurofins KinaseProfiler panel of 60 kinases, per cent inhibition
T11 construct: gene RPS6KA1
Source text: as §1

IKKε(h) = target: T12, IKKε(h) (Homo sapiens, UniProt Q14164); assay: biochemical; set-up: Eurofins KinaseProfiler panel of 60 kinases, per cent inhibition
T12 construct: gene IKBKE
Source text: as §1

mTOR(h) = mTOR(h) (Homo sapiens, UniProt P42345); assay: biochemical; set-up: Eurofins KinaseProfiler panel of 60 kinases, per cent inhibition
Source text: as §1

CaMKIIδ(h) = target: T13, CaMKIIδ(h) (Homo sapiens, UniProt Q13557); assay: biochemical; set-up: Eurofins KinaseProfiler panel of 60 kinases, per cent inhibition
T13 construct: gene CAMK2D
Source text: as §1

p38γ (SAPK3) = target: T14, p38γ (SAPK3) (Homo sapiens, UniProt P53778); assay: mobility shift assay (Caliper); confirmed in 60-kinase panel, % inhibition at […]; type: biochemical
T14 construct: gene MAPK12

p38δ = target: T15, p38δ (Homo sapiens, UniProt O15264); assay: biochemical; set-up: Kinase inhibition by mobility shift assay (Caliper)
T15 construct: gene MAPK13

T12 sequence (Q14164 whole entry): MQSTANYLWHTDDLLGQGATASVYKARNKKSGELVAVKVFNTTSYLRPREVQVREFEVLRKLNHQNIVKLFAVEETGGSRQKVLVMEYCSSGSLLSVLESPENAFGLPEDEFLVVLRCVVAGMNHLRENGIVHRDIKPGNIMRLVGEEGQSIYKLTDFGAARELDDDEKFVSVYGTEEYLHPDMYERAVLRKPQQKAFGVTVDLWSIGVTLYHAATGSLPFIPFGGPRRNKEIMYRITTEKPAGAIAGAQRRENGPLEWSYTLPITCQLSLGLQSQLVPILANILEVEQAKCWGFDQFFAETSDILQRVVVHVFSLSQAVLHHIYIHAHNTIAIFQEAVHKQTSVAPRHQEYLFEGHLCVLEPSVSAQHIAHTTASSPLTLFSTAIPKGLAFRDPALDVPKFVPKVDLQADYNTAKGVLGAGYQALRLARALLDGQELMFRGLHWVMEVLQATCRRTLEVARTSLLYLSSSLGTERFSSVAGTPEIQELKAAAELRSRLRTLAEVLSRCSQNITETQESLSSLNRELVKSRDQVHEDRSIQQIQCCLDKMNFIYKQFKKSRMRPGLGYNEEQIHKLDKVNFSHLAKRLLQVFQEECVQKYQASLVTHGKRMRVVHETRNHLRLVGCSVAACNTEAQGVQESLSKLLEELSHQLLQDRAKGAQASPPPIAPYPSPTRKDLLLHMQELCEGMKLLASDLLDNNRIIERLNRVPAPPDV
Chain of MELK(h) (Q14680 whole entry): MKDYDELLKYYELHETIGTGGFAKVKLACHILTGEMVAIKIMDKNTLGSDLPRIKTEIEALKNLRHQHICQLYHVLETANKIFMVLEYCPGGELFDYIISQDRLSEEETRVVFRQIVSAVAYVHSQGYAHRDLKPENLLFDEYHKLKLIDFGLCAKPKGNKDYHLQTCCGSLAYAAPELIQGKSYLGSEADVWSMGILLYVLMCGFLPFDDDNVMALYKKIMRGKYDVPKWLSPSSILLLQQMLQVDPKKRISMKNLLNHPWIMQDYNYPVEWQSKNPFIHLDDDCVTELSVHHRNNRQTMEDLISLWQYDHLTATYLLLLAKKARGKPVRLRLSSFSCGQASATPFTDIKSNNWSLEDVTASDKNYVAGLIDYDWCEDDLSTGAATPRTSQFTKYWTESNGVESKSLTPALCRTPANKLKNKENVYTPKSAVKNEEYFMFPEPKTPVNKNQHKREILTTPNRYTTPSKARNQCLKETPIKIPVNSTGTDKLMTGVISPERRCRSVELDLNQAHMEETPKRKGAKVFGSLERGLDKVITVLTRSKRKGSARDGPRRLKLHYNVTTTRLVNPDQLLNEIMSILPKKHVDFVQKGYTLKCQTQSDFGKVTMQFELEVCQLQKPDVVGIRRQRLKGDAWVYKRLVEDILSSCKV
T7 sequence (Q00535 whole entry): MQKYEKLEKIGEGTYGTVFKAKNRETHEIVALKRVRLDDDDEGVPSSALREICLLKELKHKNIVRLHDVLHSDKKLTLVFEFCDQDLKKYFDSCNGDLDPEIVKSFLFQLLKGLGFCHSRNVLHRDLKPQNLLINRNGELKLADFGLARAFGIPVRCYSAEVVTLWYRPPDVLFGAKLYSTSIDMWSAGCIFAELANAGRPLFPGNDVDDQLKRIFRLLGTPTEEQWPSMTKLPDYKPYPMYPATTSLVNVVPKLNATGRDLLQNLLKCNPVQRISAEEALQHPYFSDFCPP
T7 sequence (Q15078 whole entry partner): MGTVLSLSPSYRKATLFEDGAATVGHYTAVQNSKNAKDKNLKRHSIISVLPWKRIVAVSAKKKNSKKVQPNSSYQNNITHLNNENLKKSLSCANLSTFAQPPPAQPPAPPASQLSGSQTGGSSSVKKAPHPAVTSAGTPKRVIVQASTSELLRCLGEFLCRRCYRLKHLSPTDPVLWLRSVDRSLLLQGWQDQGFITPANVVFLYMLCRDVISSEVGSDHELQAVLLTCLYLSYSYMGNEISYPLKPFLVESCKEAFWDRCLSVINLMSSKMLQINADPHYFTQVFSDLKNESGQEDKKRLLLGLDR
T9 sequence (Q16539 whole entry): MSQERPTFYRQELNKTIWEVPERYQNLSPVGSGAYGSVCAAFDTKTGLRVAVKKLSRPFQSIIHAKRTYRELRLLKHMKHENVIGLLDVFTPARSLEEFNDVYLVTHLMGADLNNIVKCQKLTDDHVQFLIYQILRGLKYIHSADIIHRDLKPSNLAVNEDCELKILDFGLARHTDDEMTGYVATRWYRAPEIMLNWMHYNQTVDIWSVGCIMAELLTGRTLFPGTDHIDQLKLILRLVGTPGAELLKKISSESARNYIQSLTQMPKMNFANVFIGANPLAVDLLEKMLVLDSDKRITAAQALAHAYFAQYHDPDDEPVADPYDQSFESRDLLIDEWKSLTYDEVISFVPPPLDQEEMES
Chain of Hck(h) activated (P08631 whole entry): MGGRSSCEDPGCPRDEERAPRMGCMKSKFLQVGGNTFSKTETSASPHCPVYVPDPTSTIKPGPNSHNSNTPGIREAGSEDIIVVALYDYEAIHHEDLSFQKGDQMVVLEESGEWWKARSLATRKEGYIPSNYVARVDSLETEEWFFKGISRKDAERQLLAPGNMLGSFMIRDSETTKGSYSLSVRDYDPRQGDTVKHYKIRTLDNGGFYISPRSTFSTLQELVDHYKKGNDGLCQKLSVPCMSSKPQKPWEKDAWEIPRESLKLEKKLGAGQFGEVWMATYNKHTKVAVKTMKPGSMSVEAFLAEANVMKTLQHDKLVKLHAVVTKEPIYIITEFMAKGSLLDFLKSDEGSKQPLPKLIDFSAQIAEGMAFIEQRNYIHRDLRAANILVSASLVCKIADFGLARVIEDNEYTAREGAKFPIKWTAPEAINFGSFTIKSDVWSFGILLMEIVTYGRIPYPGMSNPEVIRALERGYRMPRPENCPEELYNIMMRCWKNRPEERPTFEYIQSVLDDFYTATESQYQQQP
Chain of Lyn(h) (P07948 whole entry): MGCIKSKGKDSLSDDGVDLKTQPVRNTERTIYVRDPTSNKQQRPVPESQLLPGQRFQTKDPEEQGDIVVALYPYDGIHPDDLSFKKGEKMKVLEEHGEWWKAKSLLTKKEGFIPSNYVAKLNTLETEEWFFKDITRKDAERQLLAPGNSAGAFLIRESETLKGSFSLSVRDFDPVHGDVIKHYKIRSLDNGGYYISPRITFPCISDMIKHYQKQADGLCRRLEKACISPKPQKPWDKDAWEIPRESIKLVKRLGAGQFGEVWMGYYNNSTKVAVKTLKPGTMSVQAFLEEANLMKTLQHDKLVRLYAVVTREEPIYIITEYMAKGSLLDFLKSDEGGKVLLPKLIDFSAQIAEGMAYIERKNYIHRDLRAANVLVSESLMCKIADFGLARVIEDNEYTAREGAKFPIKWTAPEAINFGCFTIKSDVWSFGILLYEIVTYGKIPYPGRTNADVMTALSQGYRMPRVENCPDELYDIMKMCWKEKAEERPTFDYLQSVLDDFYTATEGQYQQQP
T3 sequence (P11309 whole entry): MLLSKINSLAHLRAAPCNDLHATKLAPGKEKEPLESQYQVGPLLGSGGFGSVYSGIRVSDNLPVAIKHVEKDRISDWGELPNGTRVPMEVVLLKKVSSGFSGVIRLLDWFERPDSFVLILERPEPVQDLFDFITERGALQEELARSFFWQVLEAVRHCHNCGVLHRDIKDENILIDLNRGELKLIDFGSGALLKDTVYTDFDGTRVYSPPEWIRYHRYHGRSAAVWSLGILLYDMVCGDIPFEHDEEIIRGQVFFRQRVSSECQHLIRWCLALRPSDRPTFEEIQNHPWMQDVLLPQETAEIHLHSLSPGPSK
T4 sequence (Q9P1W9 whole entry): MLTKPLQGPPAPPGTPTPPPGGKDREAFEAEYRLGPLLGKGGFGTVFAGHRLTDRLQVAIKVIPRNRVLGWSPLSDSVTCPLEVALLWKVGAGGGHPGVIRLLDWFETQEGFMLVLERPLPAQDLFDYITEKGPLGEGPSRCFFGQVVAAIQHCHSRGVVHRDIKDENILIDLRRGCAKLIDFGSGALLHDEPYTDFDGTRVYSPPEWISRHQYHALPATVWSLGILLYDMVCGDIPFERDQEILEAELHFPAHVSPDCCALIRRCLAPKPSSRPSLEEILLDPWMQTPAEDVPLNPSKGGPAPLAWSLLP
T11 sequence (Q15418 whole entry): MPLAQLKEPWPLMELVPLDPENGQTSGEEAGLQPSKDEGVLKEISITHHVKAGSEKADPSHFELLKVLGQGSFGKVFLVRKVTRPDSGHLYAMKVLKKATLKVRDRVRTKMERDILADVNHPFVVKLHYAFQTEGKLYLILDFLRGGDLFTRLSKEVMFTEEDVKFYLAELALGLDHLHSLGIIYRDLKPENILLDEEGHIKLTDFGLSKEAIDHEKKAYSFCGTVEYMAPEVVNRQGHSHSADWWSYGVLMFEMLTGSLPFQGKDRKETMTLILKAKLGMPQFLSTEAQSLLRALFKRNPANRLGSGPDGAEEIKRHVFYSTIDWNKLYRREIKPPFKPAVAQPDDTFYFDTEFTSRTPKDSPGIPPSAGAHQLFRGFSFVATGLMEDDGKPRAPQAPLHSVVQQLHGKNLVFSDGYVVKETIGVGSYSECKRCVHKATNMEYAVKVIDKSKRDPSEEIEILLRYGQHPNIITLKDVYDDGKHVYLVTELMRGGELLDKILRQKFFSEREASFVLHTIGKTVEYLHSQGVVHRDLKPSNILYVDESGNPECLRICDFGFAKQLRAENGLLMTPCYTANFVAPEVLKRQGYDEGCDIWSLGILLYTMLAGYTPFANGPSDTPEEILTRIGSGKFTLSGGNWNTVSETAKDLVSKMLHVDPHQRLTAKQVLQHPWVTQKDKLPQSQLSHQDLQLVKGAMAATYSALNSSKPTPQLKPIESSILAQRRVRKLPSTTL
T1 sequence (Q16539 whole entry): as the sequence (Q16539 whole entry) above

## CCN1CCOc2nc(N3CCOCC3)nc(-c3ccc(NC(=O)OC)cc3)c2C1=O [Compound A]
p38α
  pIC50: < 4.52
PKD1
  pIC50: < 4.52
Pim-1(h)
  inhibition at 1 µM: -6%
  inhibition at 10 µM: -7%
CLK2(h)
  inhibition at 1 µM: -2%
  inhibition at 10 µM: -2%
BTK(h)
  inhibition at 1 µM: -1%
  inhibition at 10 µM: 0%
PAK4(h)
  inhibition at 1 µM: -2%
  inhibition at 10 µM: 4%
Pim-2(h)
  inhibition at 1 µM: 8%
  inhibition at 10 µM: 7%
DYRK2(h)
  inhibition at 1 µM: -10%
  inhibition at 10 µM: -10%
Aurora-B(h)
  inhibition at 1 µM: -24%
  inhibition at 10 µM: -28%
KDR(h)
  inhibition at 1 µM: -16%
  inhibition at 10 µM: -12%
PKCθ(h)
  inhibition at 1 µM: 7%
  inhibition at 10 µM: 7%
Lyn(h)
  inhibition at 1 µM: -2%
  inhibition at 10 µM: 13%
CDK5/p25(h)
  inhibition at 1 µM: -2%
  inhibition at 10 µM: -2%
BrSK2(h)
  inhibition at 1 µM: 5%
  inhibition at 10 µM: 5%
Ron(h)
  inhibition at 1 µM: 10%
  inhibition at 10 µM: 9%
SAPK2a(h)
  inhibition at 1 µM: -16%
  inhibition at 10 µM: 9%
cKit(h)
  inhibition at 1 µM: 4%
  inhibition at 10 µM: 6%
MELK(h)
  inhibition at 1 µM: 2%
  inhibition at 10 µM: 9%
Hck(h) activated
  inhibition at 1 µM: -5%
  inhibition at 10 µM: 5%
Rsk1(h)
  inhibition at 1 µM: -11%
  inhibition at 10 µM: 5%
IKKε(h)
  inhibition at 1 µM: 16%
  inhibition at 10 µM: 18%
mTOR(h)
  inhibition at 1 µM: -1%
CaMKIIδ(h)
  inhibition at 1 µM: -6%
  inhibition at 10 µM: 1%
p38γ (SAPK3)
  % inhibition at 10 μM: 64
p38δ
  pIC50: 6.42
